Patent US20200000798A1, “PROCESS FOR […] ALKALOID FRACTION OF R[…] (HERB.) TRAUB AND USES THEREOF” (UNIVERSIDADE FEDERAL DO RIO GRANDE DO SUL-UFRGS, priority 2013, published 2020)

Legend:
[1] = tested on: lymphocytes from draining lymph nodes; assay: Lymphocyte proliferation assay (MTT), LPS or ConA stimulated; assay type: cell-based, BALB/c mice; conditions: 1 μM, 48 h
Method: The in vitro lymphocyte proliferation was performed using the MTT colorimetric assay described by Tomita T et al. 2006. BALB/c mice were euthanized and their draining lymph nodes were removed aseptically. A single cell suspension was prepared, grown in triplicate (5×10^5 cells/well in a 96 well plate) and treated with montanine at the dosages of 1 μM for 48 h at 37° C. at 5% CO2 in RPMI medium containing […] lipopolysaccharide (LPS) or […] of conconavalin A (ConA) or RPMI medium alone as a culture control. After incubation, MTT (0.5 mg/ml) was added to each well and the plate was placed in the stove again and after 4 hours the supernatant was removed and 50 μI of dimethyl sulphoxide (DMSO, Sigma) were added. […] After the plate was shaken to dissolve the formazan crystals, optical density (OD) of each well was measured at 570 nm.
LPS acts primarily on the B cell receptor and the Toll-like receptor 4 (TLR4), molecules that are present on the surface of B lymphocytes, thus acting on these cells. ConA acts on several receptors containing glycoproteins or lipoproteins, stimulating both lymphocytes both but acting preferably on T lymphocytes.

lymphocyte migration = conditions: 100 micrograms/mL, vs placebo; cited from earlier work
healthy mice = assay: Immunosuppression assay in healthy animals (complete blood count); assay type: in vivo; conditions: 0.5 or 1.5 mg/kg every 12 hours for 3 days, then 3 days without treatment
Method: An immunosuppression assay in healthy animals was performed to assess the role of montanine as an immunosuppressive agent. 20 male, healthy mice of 8-12 weeks of age were used for examining the whole blood (complete blood count—parameters of: total of white blood cells (WBC); % lymphocytes (Lin %), lymphocytes/mm3 (Lin mm30; % monocytes (Mon %); monocytes/mm3 (Mon mm3); % granulocytes (Gran %); granulocytes/mm3 (Gran/mm3); total of red blood cells (RBC); hemoglobin (HGB) and total of platelets (PLQ)) of animals, which were divided as follows: healthy animals (with no treatment given) (n=4), animals treated with 0.5 or 1.5 mg/kg de montanine/12-12 hours (n=8/group). Whole blood was collected at day 0 for basal analysis of the blood parameters of the complete blood count in all animals, they were then treated for 3 days with the two doses and on the third day blood was collected again for complete blood count analysis; also, animals were still alive for three more days without any treatment for a new blood collection (FIG. 9).

[2] = tested on: collagen type II-induced arthritis in DBA/1J mice; assay: Collagen-induced arthritis (CIA) model with therapeutic treatment; assay type: in vivo
Method: CIA induction is performed by following the aforementioned protocol.
After the boost injection, animals were monitored daily for clinical signs of the disease and treatment with montanine at 0.5 and 1.5 mg/kg is started on the day of clinical detection of CIA. Animals given sterile saline, the treatment vehicle, were deemed as the positive control group, i.e. untreated. The drug was administered twice daily for 10 days by the intraperitoneal route.
Animals were monitored daily for analyzing the clinical signs of arthritis by means of the severity score as follows: 0-no signs of disease; 1-mild erythema and edema; 2-moderate erythema and edema; 3-severe erythema and edema extending from the knee to the metatarsus; 4-severe erythema and edema with loss of function. The total score is the average of the scores on the legs from the onset of the disease.
Articular hypernociception was assessed as previously described by Pinto LG et al. 2010. For this model, a polypropylene tip was adapted to the manual force transducer, a force was applied on the subplantar surface of the paw producing tibiotarsal bending motion. The automatic pressure meter recorded the strength of the applied force when the paw is removed. The assay is repeated 3 times sequentially to provide a consistent measurement, the limiar being expressed in grams (g).
The tibio-tarsal joints of DBA/1 J animals were isolated and immersed in 10% buffered formalin for fixation for 24 hours. Then, tissues were decalcified in 10% trichloroacetic acid (TCA) for approximately 18 hours. These tissues were dehydrated and embedded in paraffin blocks. Six pm-thick cuts were arranged on a microscope slide. […] All the cuts were assessed under a microscope by two blinded observers, and the images captured by digital camera.

[3] = tested on: mBSA-induced arthritis in Balb-C mice; assay: Antigen-induced arthritis (AIA) model, mBSA-induced monoarthritis; assay type: in vivo
Method: Antigen-induced arthritis (AIA) is an animal model of arthritis that is broadly described and used in worldwide literature. One of the inducing antigens in this model in Balb-C mice is methylated bovine serum albumin (mBSA), which, after systemic immunization (subcutaneous injection) is injected into the joint.
Briefly, mice were immunized in three steps with mBSA (day-0, day-7 and day-14), the first step comprising […] of mBSA protein in an emulsion of 0.1 mL of complete Freund's adjuvant's (CFA) and 0.1 mL of sterile saline solution (0.9% sodium chloride), the second and third steps were performed with the same protein concentration, the same sterile saline solution concentration and the same adjuvant concentration, but in these steps incomplete Freund's adjuvant (IFA) was used; 3 weeks after the first immunization (day 21) mBSA at a concentration of 30 ug/mL were injected into the femorotibial joint (knee) and the contralateral knee was administered with sterile saline only and serves as the control of the experiment (Grespan et al. 2008). […] Treatment with montanine was given twice daily, one day before intra-articular challenge, at the day of the challenge and at day of death, by intraperitoneal route and diluted in saline. Doses tested were 0.3; 1; 3 mg/kg. One group of animals received the treatment vehicle (saline) for control purposes, said group being designated positive control. The experiment is terminated at day 22 (24 hours after challenge and treatment) when animals were euthanized to collect the joint lavage fluid. Lavage was performed using a PBS-EDTA solution and then the number of leukocytes existing in the joint was counted in a Neubauer chamber at a 1:2 dilution with Turk's solution. Furthermore, pain of the animals was assessed in a digital analgesia-meter (von Frey) prior to intra-articular injection at time 0 (zero), 3, 5 and 24 hours after intra-articular challenge.

[4] = tested on: collagen type II-induced arthritis in DBA/1J mice; assay: Collagen-induced arthritis (CIA) model with prophylactic treatment; assay type: in vivo
Method: The chronic arthritis model most widely used in the world literature is the model of collagen type II-induced arthritis (CIA). Said model shares many pathological features with the disease, such as type II collagen (CM), the major cartilage protein and one of the potential RA self-antigens. […]
After the boost injection, treatment at dosages of 0.05; 0,25 and 0.5 mg/kg was started and continued for 15 days (twice daily, intraperitoneally) and animals were monitored daily for clinical signs of the disease.
Animals were monitored daily for analyzing the clinical signs of arthritis by means of the severity score as follows: 0—no signs of disease; 1—mild erythema and edema; 2—moderate erythema and edema; 3—severe erythema and edema extending from the knee to the metatarsus; 4—severe erythema and edema with loss of function. […]
The tibio-tarsal joints of DBA/1 J animals were isolated and immersed in 10% buffered formalin for fixation for 24 hours. […] All the cuts were assessed under a microscope by two blinded observers, and the images captured by digital camera.

synovial fibroblasts = assay: Synovial fibroblast invasion test (matrigel inserts); assay type: cell-based; conditions: 1 μM, 24 h, five lines tested, vs DMSO vehicle
Method: To evaluate the invasion of synovial fibroblasts into matrigel inserts (collagen matrix) a BD kit (Franklin Lakes, N.J., USA) was used, and the test was performed in accordance with the manufacturer specifications.
When cells reached 70-80% confluence, they were trypsinized with trypsin-EDTA for digestion. Then, 2×10^4 cells were resuspended in 500 μI of free culture medium of fetal calf serum and placed on top of the insert. Montanine at a dose of 1 μM or the same concentration of vehicle (DMSO) was added on top of the insert with the cells. At the lower compartment 750 μI of culture medium with 10% fetal bovine serum was added. The plate was incubated at 37° C. for 24 h in a stove with 5% CO2. After the incubation period, the top of the chamber was cleaned with a swab, stained with crystal violet dye, and the total number of cells that invaded the Matrigel membrane was counted in an optical microscope at 100× magnification. Experiments were performed in duplicate.

[5] = tested on: lymphocytes from draining lymph nodes; assay: Lymphocyte viability test (MTT); assay type: cell-based; conditions: 48 hours
Method: A lymphocyte viability test was performed to evaluate the cytotoxicity of montanine using a colorimetric MTT [3-(4,5-dimethylthiazol-2-yl)-2,5-diphenyl tetrazolium bromide] assay, as described by Tomita T. et al. 2006. Animals were euthanized and their draining lymph nodes (popliteal and inguinal) were removed aseptically. A single cell suspension was prepared, grown in triplicate (5×10^5 cells/well in a 96 well plate) and treated with montanine at the dosages (0.01 μM, 0.1 μM, 1 μM, 10 μM and 100 μM) for 48 hours at 37° C. at 5% CO2 in RPMI medium. After incubation, MTT (0.5 mg/ml) was added to each well and the plate was placed in the stove again and after 4 hours the supernatant was removed and 50 μI of dimethyl sulphoxide (DMSO, Sigma) were added. After the plate was shaken to dissolve the MTT formazan crystals, optical density (OD) of each well was measured at 570 nm using a microplate ELISA reader.

[6] = 0.5 mg/kg i.p. twice daily for 10 days

CO[C@H]1C=C2[C@H]3C[N@@](Cc4cc5c(cc43)OCO5)[C@H]2C[C@@H]1O [montanine]
lymphocyte proliferation stimulated by ConA ([1]; ConA): significantly decreased | lymphocyte proliferation stimulated by LPS ([1]; LPS): had no effect | anti-inflammatory effect on the lymphocyte migration model (lymphocyte migration): unable to generate a different effect than the placebo | immunosuppression (complete blood count) (healthy mice): does not lead to immunosuppression in any of the tested dosages | arthritis clinical score ([2]; 0.5 mg/kg i.p. twice daily): reduction of the clinical score from the third day of treatment | histological parameters of the joint [2, 6]: improved all the histological parameters, except for synovial hyperplasia | pain (articular nociception) [2, 6]: reduced pain | pain (joint hypernociception), onset of decrease ([3]; 3 mg/kg i.p. twice daily): decrease as of 3 hours | pain (joint hypernociception, von Frey) ([3]; 0.3, 1, 3 mg/kg i.p. twice daily, 0, 3, 5 and 24 hours after intra-articular challenge): reduction in pain at all tested doses | total leukocyte migration to the femorotibial joint ([3]; 0.3, 1, 3 mg/kg i.p., 24 hours after challenge, compared with saline group): significantly reduced at all three doses | histological parameters of the joint ([4]; 0.5 mg/kg i.p. twice daily for 15 days): improved all the histological parameters of the joint, except for synovial hyperplasia | arthritis clinical score ([4]; 0.25 and 0.5 mg/kg i.p. twice daily, from day 8 of treatment): reduced clinical score | invasion of synovial fibroblasts (synovial fibroblasts): reduced the invasion of synovial fibroblasts of the five lines tested | lymphocyte viability ([5]; 0.01 μM, 0.1 μM and 1 μM): did not alter cell viability | lymphocyte viability ([5]; 10 μM): no significant difference between the cell group and the group treated with the montanine at 10 μM, however, decreased cell viability can be seen | lymphocyte viability ([5]; 100 μM): decreased cell viability can be seen, which was higher in the 100 μM dose | highest dose that did not exhibit any cytotoxic effects on the cells ([5]; lymphocytes, MTT): 1 µM
